From ChEMBL document CHEMBL1145498, “A systematic interaction map of validated kinase inhibitors with Ser/Thr kinases” (Proc Natl Acad Sci U S A, 2007)

Molecular target: Calcium/calmodulin-dependent protein kinase type 1D (Homo sapiens) (UniProt Q8IU85)
Sequence (Q8IU85 whole entry, looked up): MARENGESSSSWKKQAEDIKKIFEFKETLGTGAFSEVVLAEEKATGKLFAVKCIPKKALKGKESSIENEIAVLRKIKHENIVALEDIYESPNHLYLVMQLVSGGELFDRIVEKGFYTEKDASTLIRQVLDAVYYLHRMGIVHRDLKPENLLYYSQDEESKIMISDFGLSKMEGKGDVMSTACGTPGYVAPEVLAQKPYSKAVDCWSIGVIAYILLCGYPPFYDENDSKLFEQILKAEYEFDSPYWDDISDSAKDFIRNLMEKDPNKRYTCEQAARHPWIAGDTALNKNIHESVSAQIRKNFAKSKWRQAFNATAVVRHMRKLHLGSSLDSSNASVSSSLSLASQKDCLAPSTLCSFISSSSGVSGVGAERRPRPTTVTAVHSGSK

Row | ΔTm | Compound
1 | 1.1 °C | Oc1cc(O)cc(/C=C/c2ccc(O)c(O)c2)c1 [PICEATANNOL]
2 | 1.3 °C | O=C1Nc2ccccc2/C1=C\c1ccc[nH]1

Row | Compound | ΔTm
3 | COc1ccc(Cl)cc1NC(=O)Nc1cc(C)nc2ccccc12 | 2.2 °C

Molecular target: Cyclin-dependent kinase 6 (Homo sapiens) (UniProt Q00534)
Sequence (Q00534 whole entry): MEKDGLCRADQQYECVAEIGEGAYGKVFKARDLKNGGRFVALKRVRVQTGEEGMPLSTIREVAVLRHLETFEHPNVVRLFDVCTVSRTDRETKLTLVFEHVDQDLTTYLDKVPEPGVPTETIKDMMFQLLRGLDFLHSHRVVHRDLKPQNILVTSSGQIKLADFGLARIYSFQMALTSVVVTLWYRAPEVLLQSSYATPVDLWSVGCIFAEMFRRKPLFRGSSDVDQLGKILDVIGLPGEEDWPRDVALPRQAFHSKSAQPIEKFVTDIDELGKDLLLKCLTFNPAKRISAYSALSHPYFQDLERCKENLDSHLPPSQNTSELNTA

Row | Compound | ΔTm
4 | CN(C)C[C@@H]1CCn2cc(c3ccccc32)C2=C(C(=O)NC2=O)c2cn(c3ccccc23)CCO1 [RUBOXISTAURIN] | 0.5 °C
5 | Oc1cc(O)cc(/C=C/c2ccc(O)c(O)c2)c1 [PICEATANNOL] | 0.3 °C
6 | COc1ccc(Cl)cc1NC(=O)Nc1cc(C)nc2ccccc12 | 0.4 °C
7 | O=C1Nc2ccccc2/C1=C\c1ccc[nH]1 | 2.6 °C

Molecular target: Cyclin-dependent kinase-like 1 (Homo sapiens) (UniProt Q00532)
Sequence (Q00532 whole entry): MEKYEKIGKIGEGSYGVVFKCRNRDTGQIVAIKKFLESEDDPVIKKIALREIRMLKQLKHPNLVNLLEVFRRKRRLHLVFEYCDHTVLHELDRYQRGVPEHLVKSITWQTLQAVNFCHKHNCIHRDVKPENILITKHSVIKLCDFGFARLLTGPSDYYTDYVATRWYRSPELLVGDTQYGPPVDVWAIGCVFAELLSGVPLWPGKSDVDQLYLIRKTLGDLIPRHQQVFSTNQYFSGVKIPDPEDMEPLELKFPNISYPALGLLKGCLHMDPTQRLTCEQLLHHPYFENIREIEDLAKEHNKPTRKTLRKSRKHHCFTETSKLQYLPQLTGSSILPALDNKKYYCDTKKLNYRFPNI

Row | Compound | ΔTm
8 | CN(C)C[C@@H]1CCn2cc(c3ccccc32)C2=C(C(=O)NC2=O)c2cn(c3ccccc23)CCO1 [RUBOXISTAURIN] | 0.3 °C
9 | Oc1cc(O)cc(/C=C/c2ccc(O)c(O)c2)c1 [PICEATANNOL] | -0.2 °C
10 | COc1ccc(Cl)cc1NC(=O)Nc1cc(C)nc2ccccc12 | 1.6 °C
11 | O=C1Nc2ccccc2/C1=C\c1ccc[nH]1 | 1.4 °C

Molecular target: Serine/threonine-protein kinase Chk2 (Homo sapiens, UniProt O96017)
Sequence (O96017 whole entry): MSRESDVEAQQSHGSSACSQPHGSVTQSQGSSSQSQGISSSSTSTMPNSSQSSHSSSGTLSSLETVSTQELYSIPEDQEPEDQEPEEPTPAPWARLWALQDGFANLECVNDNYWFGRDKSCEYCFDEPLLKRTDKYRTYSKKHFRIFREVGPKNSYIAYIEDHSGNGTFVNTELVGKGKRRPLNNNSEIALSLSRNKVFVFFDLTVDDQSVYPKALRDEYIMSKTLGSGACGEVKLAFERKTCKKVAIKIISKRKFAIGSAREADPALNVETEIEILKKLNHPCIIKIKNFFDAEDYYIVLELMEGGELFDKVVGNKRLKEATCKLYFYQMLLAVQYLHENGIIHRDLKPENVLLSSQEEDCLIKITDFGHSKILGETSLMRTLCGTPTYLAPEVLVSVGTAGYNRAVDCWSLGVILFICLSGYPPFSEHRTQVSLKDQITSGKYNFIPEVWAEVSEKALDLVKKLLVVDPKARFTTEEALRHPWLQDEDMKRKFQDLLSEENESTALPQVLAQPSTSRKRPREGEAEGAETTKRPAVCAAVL

Row | Compound | ΔTm
12 | CN(C)C[C@@H]1CCn2cc(c3ccccc32)C2=C(C(=O)NC2=O)c2cn(c3ccccc23)CCO1 [RUBOXISTAURIN] | 3.5 °C
13 | Oc1cc(O)cc(/C=C/c2ccc(O)c(O)c2)c1 [PICEATANNOL] | 1.9 °C
14 | COc1ccc(Cl)cc1NC(=O)Nc1cc(C)nc2ccccc12 | 2.4 °C
15 | O=C1Nc2ccccc2/C1=C\c1ccc[nH]1 | 4.1 °C

Molecular target: Dual specificity protein kinase CLK1 (Homo sapiens) (UniProt P49759)
Sequence (P49759 whole entry, looked up): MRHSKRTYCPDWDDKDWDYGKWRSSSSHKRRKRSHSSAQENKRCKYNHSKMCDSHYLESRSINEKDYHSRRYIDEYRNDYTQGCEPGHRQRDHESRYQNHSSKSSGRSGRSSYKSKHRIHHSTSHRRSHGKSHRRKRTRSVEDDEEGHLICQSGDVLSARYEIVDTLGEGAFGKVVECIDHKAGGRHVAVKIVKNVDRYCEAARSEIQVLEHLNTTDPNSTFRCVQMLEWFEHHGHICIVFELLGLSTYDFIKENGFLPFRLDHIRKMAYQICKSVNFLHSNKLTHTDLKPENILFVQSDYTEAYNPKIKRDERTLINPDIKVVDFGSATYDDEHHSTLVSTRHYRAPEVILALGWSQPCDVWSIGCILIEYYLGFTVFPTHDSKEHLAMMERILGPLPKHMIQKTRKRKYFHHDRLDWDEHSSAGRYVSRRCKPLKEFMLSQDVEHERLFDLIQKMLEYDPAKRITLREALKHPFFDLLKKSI

Row | Compound | ΔTm
16 | CN(C)C[C@@H]1CCn2cc(c3ccccc32)C2=C(C(=O)NC2=O)c2cn(c3ccccc23)CCO1 [RUBOXISTAURIN] | 5.4 °C
17 | Oc1cc(O)cc(/C=C/c2ccc(O)c(O)c2)c1 [PICEATANNOL] | 0.9 °C
18 | COc1ccc(Cl)cc1NC(=O)Nc1cc(C)nc2ccccc12 | 0.5 °C
19 | O=C1Nc2ccccc2/C1=C\c1ccc[nH]1 | 2.7 °C

Molecular target: Glycogen synthase kinase-3 beta (Homo sapiens, UniProt P49841)
Sequence (P49841 whole entry, looked up): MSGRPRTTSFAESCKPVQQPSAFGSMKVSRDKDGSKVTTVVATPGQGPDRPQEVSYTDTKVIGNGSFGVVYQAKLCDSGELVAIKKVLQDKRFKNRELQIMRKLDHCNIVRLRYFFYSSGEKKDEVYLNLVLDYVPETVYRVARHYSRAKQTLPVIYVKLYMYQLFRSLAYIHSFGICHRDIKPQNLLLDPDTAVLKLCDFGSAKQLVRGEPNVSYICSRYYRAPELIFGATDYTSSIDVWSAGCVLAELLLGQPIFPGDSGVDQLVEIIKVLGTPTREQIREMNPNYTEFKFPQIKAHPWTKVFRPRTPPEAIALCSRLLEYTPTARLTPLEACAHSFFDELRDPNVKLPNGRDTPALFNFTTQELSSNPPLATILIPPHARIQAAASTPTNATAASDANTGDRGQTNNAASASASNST

Row | Compound | ΔTm
20 | CN(C)C[C@@H]1CCn2cc(c3ccccc32)C2=C(C(=O)NC2=O)c2cn(c3ccccc23)CCO1 [RUBOXISTAURIN] | 5.9 °C
21 | Oc1cc(O)cc(/C=C/c2ccc(O)c(O)c2)c1 [PICEATANNOL] | 0.8 °C
22 | COc1ccc(Cl)cc1NC(=O)Nc1cc(C)nc2ccccc12 | 0 °C
23 | O=C1Nc2ccccc2/C1=C\c1ccc[nH]1 | 3.3 °C

Molecular target: Mitogen-activated protein kinase 11 (Homo sapiens, UniProt Q15759)
Sequence (Q15759 whole entry): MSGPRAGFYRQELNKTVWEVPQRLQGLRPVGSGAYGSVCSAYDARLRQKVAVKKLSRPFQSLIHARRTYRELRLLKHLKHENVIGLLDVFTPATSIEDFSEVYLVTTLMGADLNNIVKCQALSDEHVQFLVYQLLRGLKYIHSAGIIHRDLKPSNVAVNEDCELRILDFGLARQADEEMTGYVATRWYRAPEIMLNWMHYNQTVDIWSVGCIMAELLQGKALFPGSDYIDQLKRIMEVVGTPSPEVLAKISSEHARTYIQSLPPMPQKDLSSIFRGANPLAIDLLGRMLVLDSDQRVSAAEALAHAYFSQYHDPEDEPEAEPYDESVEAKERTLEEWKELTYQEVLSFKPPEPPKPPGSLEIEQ

Row | Compound | ΔTm
24 | CN(C)C[C@@H]1CCn2cc(c3ccccc32)C2=C(C(=O)NC2=O)c2cn(c3ccccc23)CCO1 [RUBOXISTAURIN] | 0.3 °C
25 | Oc1cc(O)cc(/C=C/c2ccc(O)c(O)c2)c1 [PICEATANNOL] | 0.8 °C
26 | COc1ccc(Cl)cc1NC(=O)Nc1cc(C)nc2ccccc12 | 1.4 °C
27 | O=C1Nc2ccccc2/C1=C\c1ccc[nH]1 | 0.3 °C

Molecular target: T1, Serine/threonine-protein kinase Nek2 (Homo sapiens) (UniProt P51955)
T1 sequence (whole entry): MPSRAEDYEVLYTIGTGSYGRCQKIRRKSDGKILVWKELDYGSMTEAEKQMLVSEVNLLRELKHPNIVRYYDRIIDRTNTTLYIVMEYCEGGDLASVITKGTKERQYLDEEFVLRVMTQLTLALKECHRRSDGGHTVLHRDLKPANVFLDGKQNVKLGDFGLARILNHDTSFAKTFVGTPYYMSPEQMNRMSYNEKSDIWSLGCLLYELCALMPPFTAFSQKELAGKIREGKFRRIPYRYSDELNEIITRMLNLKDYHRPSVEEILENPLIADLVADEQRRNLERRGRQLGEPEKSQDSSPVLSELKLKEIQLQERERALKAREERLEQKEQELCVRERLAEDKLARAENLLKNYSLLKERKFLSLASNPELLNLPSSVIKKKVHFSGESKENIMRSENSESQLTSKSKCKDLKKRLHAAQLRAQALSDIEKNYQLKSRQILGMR

Row | Compound | ΔTm
28 | CN(C)C[C@@H]1CCn2cc(c3ccccc32)C2=C(C(=O)NC2=O)c2cn(c3ccccc23)CCO1 [RUBOXISTAURIN] | 1.5 °C
29 | Oc1cc(O)cc(/C=C/c2ccc(O)c(O)c2)c1 [PICEATANNOL] | 1.1 °C
30 | COc1ccc(Cl)cc1NC(=O)Nc1cc(C)nc2ccccc12 | 0.3 °C
31 | O=C1Nc2ccccc2/C1=C\c1ccc[nH]1 | 1.7 °C

Molecular target: Serine/threonine-protein kinase PAK 5 (Homo sapiens) (UniProt Q9P286)
Sequence (Q9P286 whole entry, looked up): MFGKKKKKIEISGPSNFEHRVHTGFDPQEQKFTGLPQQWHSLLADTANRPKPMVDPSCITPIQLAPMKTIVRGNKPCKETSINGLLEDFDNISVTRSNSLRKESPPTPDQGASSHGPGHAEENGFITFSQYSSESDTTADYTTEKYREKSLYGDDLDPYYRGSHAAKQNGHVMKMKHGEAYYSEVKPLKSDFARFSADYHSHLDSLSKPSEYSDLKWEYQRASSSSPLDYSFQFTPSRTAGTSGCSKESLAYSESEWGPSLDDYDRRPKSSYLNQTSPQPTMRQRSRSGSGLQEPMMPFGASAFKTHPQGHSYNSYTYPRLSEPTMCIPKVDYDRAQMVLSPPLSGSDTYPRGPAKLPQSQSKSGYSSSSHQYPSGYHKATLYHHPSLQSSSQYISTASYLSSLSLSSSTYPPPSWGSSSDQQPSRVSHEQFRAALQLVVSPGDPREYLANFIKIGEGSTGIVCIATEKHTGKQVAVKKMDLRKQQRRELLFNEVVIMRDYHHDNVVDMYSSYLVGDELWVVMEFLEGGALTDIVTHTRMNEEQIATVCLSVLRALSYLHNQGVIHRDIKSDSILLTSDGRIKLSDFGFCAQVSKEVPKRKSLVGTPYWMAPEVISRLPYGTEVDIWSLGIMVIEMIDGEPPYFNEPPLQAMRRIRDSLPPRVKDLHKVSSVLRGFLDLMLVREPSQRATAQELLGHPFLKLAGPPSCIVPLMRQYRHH

Row | Compound | ΔTm
32 | CN(C)C[C@@H]1CCn2cc(c3ccccc32)C2=C(C(=O)NC2=O)c2cn(c3ccccc23)CCO1 [RUBOXISTAURIN] | 0.9 °C
33 | Oc1cc(O)cc(/C=C/c2ccc(O)c(O)c2)c1 [PICEATANNOL] | -0.9 °C
34 | COc1ccc(Cl)cc1NC(=O)Nc1cc(C)nc2ccccc12 | 2.6 °C
35 | O=C1Nc2ccccc2/C1=C\c1ccc[nH]1 | 0.7 °C

Molecular target: T2, 3-phosphoinositide-dependent protein kinase 1 (Homo sapiens) (UniProt O15530)
T2 sequence (whole entry): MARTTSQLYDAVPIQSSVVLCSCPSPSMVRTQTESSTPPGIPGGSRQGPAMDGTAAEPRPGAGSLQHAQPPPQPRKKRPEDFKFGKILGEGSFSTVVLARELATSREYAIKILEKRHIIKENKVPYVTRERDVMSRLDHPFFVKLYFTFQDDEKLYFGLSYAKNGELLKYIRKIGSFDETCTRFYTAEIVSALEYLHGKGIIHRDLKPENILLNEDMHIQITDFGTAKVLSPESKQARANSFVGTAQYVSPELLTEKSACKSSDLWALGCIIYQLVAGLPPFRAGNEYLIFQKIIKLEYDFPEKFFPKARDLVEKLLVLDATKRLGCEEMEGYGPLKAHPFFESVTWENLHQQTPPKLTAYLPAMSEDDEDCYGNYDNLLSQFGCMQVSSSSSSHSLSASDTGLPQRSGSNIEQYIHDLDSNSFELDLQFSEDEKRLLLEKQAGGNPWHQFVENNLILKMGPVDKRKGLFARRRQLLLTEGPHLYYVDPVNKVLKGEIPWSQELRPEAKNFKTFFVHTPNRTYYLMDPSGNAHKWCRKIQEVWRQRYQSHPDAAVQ

Row | Compound | ΔTm
36 | CN(C)C[C@@H]1CCn2cc(c3ccccc32)C2=C(C(=O)NC2=O)c2cn(c3ccccc23)CCO1 [RUBOXISTAURIN] | 0.2 °C
37 | Oc1cc(O)cc(/C=C/c2ccc(O)c(O)c2)c1 [PICEATANNOL] | -0.4 °C
38 | COc1ccc(Cl)cc1NC(=O)Nc1cc(C)nc2ccccc12 | 3 °C
39 | O=C1Nc2ccccc2/C1=C\c1ccc[nH]1 | 0.9 °C

Molecular target: Serine/threonine-protein kinase pim-1 (Homo sapiens) (UniProt P11309)
Sequence (P11309 whole entry, looked up): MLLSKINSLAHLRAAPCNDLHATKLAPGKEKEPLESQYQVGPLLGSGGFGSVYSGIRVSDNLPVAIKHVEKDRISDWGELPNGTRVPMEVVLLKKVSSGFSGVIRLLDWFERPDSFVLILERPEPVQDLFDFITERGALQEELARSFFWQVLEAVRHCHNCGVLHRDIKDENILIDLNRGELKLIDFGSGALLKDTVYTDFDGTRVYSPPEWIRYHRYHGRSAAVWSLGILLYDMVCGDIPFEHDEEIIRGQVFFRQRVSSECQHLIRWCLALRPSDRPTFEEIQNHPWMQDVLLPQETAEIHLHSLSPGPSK

Row | ΔTm | Compound
40 | 3.2 °C | Oc1cc(O)cc(/C=C/c2ccc(O)c(O)c2)c1 [PICEATANNOL]
41 | 0.1 °C | O=C1Nc2ccccc2/C1=C\c1ccc[nH]1

Row | Compound | ΔTm
42 | COc1ccc(Cl)cc1NC(=O)Nc1cc(C)nc2ccccc12 | -1.1 °C

Molecular target: T3, Serine/threonine-protein kinase PLK4 (Homo sapiens) (UniProt O00444)
T3 sequence (whole entry): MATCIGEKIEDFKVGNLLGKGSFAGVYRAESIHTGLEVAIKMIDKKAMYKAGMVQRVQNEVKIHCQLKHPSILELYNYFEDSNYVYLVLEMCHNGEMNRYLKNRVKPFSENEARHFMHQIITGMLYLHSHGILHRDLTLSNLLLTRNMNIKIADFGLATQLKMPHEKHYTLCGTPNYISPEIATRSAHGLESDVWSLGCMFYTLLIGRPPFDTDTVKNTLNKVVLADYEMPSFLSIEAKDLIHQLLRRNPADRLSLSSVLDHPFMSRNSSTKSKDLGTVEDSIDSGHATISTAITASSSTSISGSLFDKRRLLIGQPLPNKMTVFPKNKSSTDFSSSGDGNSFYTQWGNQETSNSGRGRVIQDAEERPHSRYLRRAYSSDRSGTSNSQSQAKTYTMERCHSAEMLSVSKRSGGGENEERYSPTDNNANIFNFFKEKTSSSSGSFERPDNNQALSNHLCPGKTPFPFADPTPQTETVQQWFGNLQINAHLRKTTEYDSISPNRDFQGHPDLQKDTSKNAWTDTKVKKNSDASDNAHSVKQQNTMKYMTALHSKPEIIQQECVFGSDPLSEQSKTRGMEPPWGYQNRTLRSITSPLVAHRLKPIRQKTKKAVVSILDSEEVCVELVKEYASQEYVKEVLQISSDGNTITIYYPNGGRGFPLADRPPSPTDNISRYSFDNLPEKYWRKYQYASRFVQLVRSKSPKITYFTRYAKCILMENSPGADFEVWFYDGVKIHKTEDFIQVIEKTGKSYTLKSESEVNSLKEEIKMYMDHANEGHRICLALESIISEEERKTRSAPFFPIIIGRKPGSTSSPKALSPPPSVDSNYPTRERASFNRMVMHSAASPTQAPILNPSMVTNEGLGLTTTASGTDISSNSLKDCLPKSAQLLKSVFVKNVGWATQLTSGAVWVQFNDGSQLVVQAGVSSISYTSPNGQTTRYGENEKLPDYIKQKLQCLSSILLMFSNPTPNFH

Row | Compound | ΔTm
43 | CN(C)C[C@@H]1CCn2cc(c3ccccc32)C2=C(C(=O)NC2=O)c2cn(c3ccccc23)CCO1 [RUBOXISTAURIN] | 1.5 °C
44 | Oc1cc(O)cc(/C=C/c2ccc(O)c(O)c2)c1 [PICEATANNOL] | 1.1 °C
45 | COc1ccc(Cl)cc1NC(=O)Nc1cc(C)nc2ccccc12 | 3.4 °C
46 | O=C1Nc2ccccc2/C1=C\c1ccc[nH]1 | 6 °C

Molecular target: Ribosomal protein S6 kinase alpha-3 (Homo sapiens) (UniProt P51812)

Row | Compound | ΔTm
47 | CN(C)C[C@@H]1CCn2cc(c3ccccc32)C2=C(C(=O)NC2=O)c2cn(c3ccccc23)CCO1 [RUBOXISTAURIN] | 0.9 °C
48 | COc1ccc(Cl)cc1NC(=O)Nc1cc(C)nc2ccccc12 | 0.4 °C

Molecular target: STE20-like serine/threonine-protein kinase (Homo sapiens) (UniProt Q9H2G2)

Row | Compound | ΔTm
49 | CN(C)C[C@@H]1CCn2cc(c3ccccc32)C2=C(C(=O)NC2=O)c2cn(c3ccccc23)CCO1 [RUBOXISTAURIN] | 7 °C
50 | Oc1cc(O)cc(/C=C/c2ccc(O)c(O)c2)c1 [PICEATANNOL] | 1.6 °C
51 | COc1ccc(Cl)cc1NC(=O)Nc1cc(C)nc2ccccc12 | 1.4 °C
52 | O=C1Nc2ccccc2/C1=C\c1ccc[nH]1 | 3.1 °C

Molecular target: Serine/threonine-protein kinase 26 (Homo sapiens) (UniProt Q9P289)
Sequence (Q9P289 2-416 limits assumed): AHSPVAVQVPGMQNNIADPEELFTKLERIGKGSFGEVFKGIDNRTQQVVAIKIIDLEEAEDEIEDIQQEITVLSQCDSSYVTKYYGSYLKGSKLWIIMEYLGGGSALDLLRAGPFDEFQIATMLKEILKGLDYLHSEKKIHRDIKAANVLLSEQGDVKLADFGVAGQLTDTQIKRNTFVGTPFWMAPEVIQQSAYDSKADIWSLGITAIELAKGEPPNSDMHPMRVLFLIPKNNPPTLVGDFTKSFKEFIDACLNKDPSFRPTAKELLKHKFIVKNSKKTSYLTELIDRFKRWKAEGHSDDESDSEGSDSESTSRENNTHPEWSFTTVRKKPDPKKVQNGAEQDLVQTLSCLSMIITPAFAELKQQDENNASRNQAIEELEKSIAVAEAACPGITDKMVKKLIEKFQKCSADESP

Row | ΔTm | Compound
53 | 1 °C | Oc1cc(O)cc(/C=C/c2ccc(O)c(O)c2)c1 [PICEATANNOL]
54 | 3.9 °C | O=C1Nc2ccccc2/C1=C\c1ccc[nH]1

Row | Compound | ΔTm
55 | CN(C)C[C@@H]1CCn2cc(c3ccccc32)C2=C(C(=O)NC2=O)c2cn(c3ccccc23)CCO1 [RUBOXISTAURIN] | 4.1 °C
